Source: ChEMBL document CHEMBL1765071, “Single photon emission computed tomography/positron emission tomography imaging and targeted radionuclide therapy of melanoma: new multimodal fluorinated and iodinated radiotracers” (J Med Chem, 2011)

Key:
Mus musculus [1] = test: Biodistribution in mouse B16F0 cells bearing C57B16 mouse tumor at 1.26 to 5.29 MBq, iv after 3 hrs; type: ADME, organism-based, Neoplasm; settings: in vivo
Mus musculus [2] = test: Biodistribution in mouse B16F0 cells bearing C57B16 mouse tumor at 1.26 to 5.29 MBq, iv after 72 hrs; type: ADME, organism-based, Neoplasm; settings: in vivo
Mus musculus [3] = test: Biodistribution in mouse B16F0 cells bearing C57B16 mouse tumor at 1.26 to 5.29 MBq, iv after 1 hr; type: ADME, organism-based, Neoplasm; settings: in vivo
Mus musculus [4] = test: Biodistribution in mouse B16F0 cells bearing C57B16 mouse tumor at 1.26 to 5.29 MBq, iv after 6 hrs; type: ADME, organism-based, Neoplasm; settings: in vivo
Mus musculus [5] = test: Biodistribution in mouse B16F0 cells bearing C57B16 mouse tumor at 1.26 to 5.29 MBq, iv after 7 days; type: ADME, organism-based, Neoplasm; settings: in vivo, 168 h
Mus musculus [6] = test: Biodistribution in mouse B16F0 cells bearing C57B16 mouse tumor at 1.26 to 5.29 MBq, iv after 5 days; type: ADME, organism-based, Neoplasm; settings: in vivo, 120 h
Mus musculus [7] = test: Biodistribution in mouse B16F0 cells bearing C57B16 mouse tumor at 1.26 to 5.29 MBq, iv after 24 hrs; type: ADME, organism-based, Neoplasm; settings: in vivo
Mus musculus [8] = test: Biodistribution in mouse B16F0 cells bearing C57B16 mouse tumor at 1.26 to 5.29 MBq, iv after 10 days; type: ADME, organism-based, Neoplasm; settings: in vivo, 240 h
Mus musculus [9] = test: Biodistribution in mouse B16F0 cells bearing C57B16 mouse tumor at 1.26 to 5.29 MBq, iv after 14 days; type: ADME, organism-based, Neoplasm; settings: in vivo, 336 h
Mus musculus [10] = test: Biodistribution in mouse B16F0 cells bearing C57B16 mouse tumor assessed per volume of tissue at 7.4 MBq, iv after 4 hrs; type: ADME, organism-based, Neoplasm; settings: in vivo
Mus musculus [11] = test: Biodistribution in mouse B16F10 cells bearing C57B16 mouse tumor assessed per volume of tissue at 7.4 MBq, iv after 4 hrs; type: ADME, organism-based, Neoplasm, B16-F10; settings: in vivo
Mus musculus [12] = test: Biodistribution in mouse B16F0 cells bearing C57B16 mouse tumor assessed per volume of tissue at 7.4 MBq, iv after 2 hrs; type: ADME, organism-based, Neoplasm; settings: in vivo
Mus musculus [13] = test: Biodistribution in mouse B16F10 cells bearing C57B16 mouse tumor assessed per volume of tissue at 7.4 MBq, iv after 2 hrs; type: ADME, organism-based, Neoplasm, B16-F10; settings: in vivo
[14] = Antitumor activity against mouse B16F0 cells bearing C57B16 mouse assessed as inhibition of tumor growth doubling time at 18.5 MBq, iv administered 2 times on day 6 and 10; type: functional
Mus musculus [15] = test: Biodistribution in mouse B16F0 cells bearing iv dosed C57B16 mouse tumor assessed as absorption dose; type: ADME, organism-based, Neoplasm; settings: in vivo
[16] = Biodistribution in mouse B16F0 cells bearing C57B16 mouse feces at 2.7 MBq, iv after up to 72 hrs; type: ADME, organism-based; settings: in vivo
Mus musculus [17] = test: Biodistribution in mouse B16F0 cells bearing C57B16 mouse throat at 2.7 MBq, iv after 10 days; type: ADME, organism-based; settings: in vivo, 240 h
Nucleic Acid [18] = test: Ratio of drug uptake in tumor to muscle in mouse B16F0 cells bearing C57B16 mouse at 2.7 MBq, iv after 3 hrs; type: ADME, organism-based; settings: in vivo
Nucleic Acid [19] = test: Ratio of drug uptake in tumor to muscle in mouse B16F0 cells bearing C57B16 mouse at 2.7 MBq, iv after 1 hr; type: ADME, organism-based; settings: in vivo
[20] = Biodistribution in mouse B16F0 cells bearing C57B16 mouse urine at 2.7 MBq, iv after up to 24 hrs; type: ADME, organism-based; settings: in vivo
[21] = Biodistribution in mouse B16F0 cells bearing C57B16 mouse feces at 2.7 MBq, iv after up to 24 hrs; type: ADME, organism-based; settings: in vivo
Mus musculus [22] = test: Biodistribution in mouse B16F0 cells bearing C57B16 mouse throat at 2.7 MBq, iv after 1 hr; type: ADME, organism-based; settings: in vivo
[23] = Biodistribution in mouse B16F0 cells bearing C57B16 mouse urine at 2.7 MBq, iv after up to 82 hrs; type: ADME, organism-based; settings: in vivo

Row | Drug uptake (Mus musculus [1]) [% ID/g] | Drug uptake (Mus musculus [2]) [% ID/g] | Drug uptake (Mus musculus [3]) [% ID/g] | Drug uptake (Mus musculus [4]) [% ID/g] | Drug uptake (Mus musculus [5]) [% ID/g] | Drug uptake (Mus musculus [6]) [% ID/g] | Drug uptake (Mus musculus [7]) [% ID/g] | Drug uptake (Mus musculus [8]) [% ID/g] | Drug uptake (Mus musculus [9]) [% ID/g] | Compound | other results
1 | 2.2 | 0.4 | 2 | 1.8 | 0.2 | 0.3 | 0.9 | – | – | CCN(CCNC(=O)c1cnc2cc([125I])ccc2n1)c1cccc(F)n1 | –
2 | 26.3 | 12.3 | 21.8 | 29.6 | 3.4 | 7.3 | 28 | 1.9 | – | CCN(CC)CCNC(=O)c1cnc2cc([125I])ccc2n1.Cl.Cl | –
3 | 13.3 | 7.7 | 12.1 | 14.5 | 3 | 5.2 | 11.2 | 1.6 | 1.1 | CCN(CCNC(=O)c1cnc2cc([125I])ccc2n1)CCc1ccnc(F)c1.Cl.Cl | –
4 | 9.3 | 9.5 | 9.1 | 14.1 | 2.5 | 5.1 | 16.3 | 1.4 | 0.7 | CCN(CCCc1ccnc(F)c1)CCNC(=O)c1cnc2cc([125I])ccc2n1.Cl.Cl | –
5 | 8.8 | 9.6 | 9.6 | 12.1 | – | 5.1 | 12.1 | – | – | CCN(CCNC(=O)c1ccnc(F)c1)CCNC(=O)c1cnc2cc([125I])ccc2n1.Cl.Cl | –
6 | 13.7 | 5.7 | 13.1 | 12.5 | 1.5 | 2.6 | 8.6 | 0.8 | 0.4 | CCN(CCNC(=O)c1cnc2cc([125I])ccc2n1)CCNc1cccc(F)n1.Cl.Cl | –
7 | 12 | 10 | 10.3 | 15.4 | – | 7.1 | 16 | 1.9 | 0.8 | CCN(CCNC(=O)c1cnc2cc([125I])ccc2n1)Cc1ccnc(F)c1.Cl.Cl | –
8 | 20.2 | 10.3 | 12.7 | 18.8 | 3.2 | 5.2 | 18.2 | 1.7 | 0.6 | CCN(CCNC(=O)c1cnc2cc([125I])ccc2n1)CCOc1cccnc1F.Cl.Cl | Drug uptake [16]: 18.7 %ID; Drug uptake (Mus musculus [17]): 0.1 %ID; Ratio (Nucleic Acid [18]): 37; Ratio (Nucleic Acid [19]): 23; Drug uptake [20]: 38.1 %ID; Drug uptake [21]: 36.1 %ID; Drug uptake (Mus musculus [22]): 1.5 %ID; Drug uptake [23]: 45.1 %ID

The next lines start with the molecule.

Row | Compound | Drug uptake (Mus musculus [1]) [% ID/g] | Drug uptake (Mus musculus [2]) [% ID/g] | Drug uptake (Mus musculus [3]) [% ID/g] | Drug uptake (Mus musculus [4]) [% ID/g] | Drug uptake (Mus musculus [5]) [% ID/g] | Drug uptake (Mus musculus [6]) [% ID/g] | Drug uptake (Mus musculus [7]) [% ID/g] | Drug uptake (Mus musculus [8]) [% ID/g] | Drug uptake (Mus musculus [9]) [% ID/g] | other results
9 | CCN(CCNC(=O)c1ccc2cc([125I])ccc2c1)CCOc1cccnc1F.Cl | 8 | – | 7.9 | 7.4 | 2.1 | 2.8 | 5.9 | 0.2 | 0.6 | –
10 | CCN(CCNC(=O)c1cccc2c(=O)c3cc([125I])ccc3[nH]c12)CCOc1cccnc1F.Cl | 13 | 8.6 | 10.7 | 13 | 4.3 | 4.5 | 16 | 2.7 | 2 | –
11 | CCN(CCNC(=O)c1cnc2cc(I)ccc2n1)CCOc1cccnc1[18F] | – | – | – | – | – | – | – | – | – | Drug uptake (Mus musculus [10]): 0.6 %ID; Drug uptake (Mus musculus [11]): 0.2 %ID; Drug uptake (Mus musculus [12]): 8.3 %ID; Drug uptake (Mus musculus [13]): 2.1 %ID
12 | CCN(CCNC(=O)c1cccc2nc3cc([125I])ccc3nc12)CCOc1cccnc1F.Cl.Cl | 12.3 | 5.8 | 11.4 | 13.8 | 2 | 3.7 | 13.8 | 1.2 | 0.7 | –
13 | CCN(CCNC(=O)c1ccc2cncc([125I])c2n1)CCOc1cccnc1F.Cl.Cl | 5.5 | 3.3 | 5.6 | 5.3 | 1.1 | 1.6 | 5.2 | 0.5 | 0.4 | –
14 | CCN(CCNC(=O)c1cnc2cc([131I])ccc2n1)CCOc1cccnc1F.Cl.Cl | – | – | – | – | – | – | – | – | – | Time [14]: 3.8 days; Drug uptake (Mus musculus [15]): 1.12 Gy/MBq
15 | CCN(CC)Cc1ccnc(F)c1CNC(=O)c1cnc2cc([125I])ccc2n1.Cl.Cl | 6.5 | 4.1 | 5.6 | 6.7 | 1.5 | 2.4 | 6.4 | 0.8 | 0.7 | –
16 | CCN(CC)CCNC(=O)c1cnc2cc([131I])ccc2n1.Cl.Cl | – | – | – | – | – | – | – | – | – | Drug uptake (Mus musculus [15]): 1.71 Gy/MBq
17 | CCN(CCNC(=O)c1cn2cc([125I])ccc2n1)CCOc1cccnc1F.Cl.Cl | 13.1 | 8.6 | 13.2 | 13.4 | 3.9 | 6.4 | 15.6 | 2.3 | 1.6 | –
18 | CCN(CCNC(=O)c1ccc2cc([125I])ccc2n1)CCOc1cccnc1F.Cl.Cl | 10.8 | 3.2 | 10.7 | 9.7 | 1.1 | 2.3 | 6.3 | 0.4 | 0.2 | –
